Target: RIPK1 (recombinant GST-RIPK1 kinase domain, residues 1-327) (Homo sapiens (Human), UniProt Q13546)
Assay: RIPK1-ADP-Glo Enzymatic Assay
Type: biochemical
Details: 25 nM GST-RIPK1, 300 μM ATP, 3 μM dephosphorylated-MBP; 30 minutes pre-incubation, 150 minutes reaction; ten-point titration
Procedure: The enzymatic activity of RIPK1 is measured using an assay derived from ADP-Glo kit (™Promega), which provides a luminescent-based ADP detection system. Specifically, the ADP generated by RIPK1 kinase is proportionally detected as luminescent signals in a homogenous fashion. In this context, the assessment of the inhibitory effect of small molecules (EC50) is measured by the effectiveness of the compounds to inhibit the ATP to ADP conversion by RIPK1.
In this assay, the potency (EC50) of each compound was determined from a ten-point (1:3 serial dilution; top compound concentration of 100000 nM) titration curve using the following outlined procedure. To each well of a white ProxiPlus 384 well-plate, 30 nL of compound (1% DMSO in final assay volume of 3 μL) was dispensed, followed by the addition of 2 μL of 1× assay buffer (25 mM Hepes 7.3, 20 mM MgCl2, 50 mM NaCl, 1 mM DTT, 0.005% Tween20, and 0.02% BSA) containing 37.5 nM of GST-RIPK1 (recombinant GST-RIPK1 kinase domain (residues 1-327) enzyme produced from baculovirus-transfected Sf21 cells: MW=62 kDa). Plates were placed in an ambient temperature humidified chamber for a 30 minutes pre-incubation with compound. Subsequently, each reaction was initiated by the addition of 1 μL 1× assay buffer containing 900 μM ATP and 3 μM dephosphorylated-MBP substrate. The final reaction in each well of 3 μL consists of 25 nM of GST-RIPK1, 300 μM ATP, and 3 μM dephosphorylated-MBP. Kinase reactions were allowed to proceed for 150 minutes prior to adding ADP-Glo reagents per Promega's outlined kit protocol. Dose-response curves were generated by plotting percent effect (% product conversion; Y-axis) vs. Log10 compound concentrations (X-axis). EC50 values were calculated using a non-linear regression, four-parameters sigmoidal dose-response model.

Sequence of RIPK1 (recombinant GST-RIPK1 kinase domain, residues 1-327) (Q13546 1-327): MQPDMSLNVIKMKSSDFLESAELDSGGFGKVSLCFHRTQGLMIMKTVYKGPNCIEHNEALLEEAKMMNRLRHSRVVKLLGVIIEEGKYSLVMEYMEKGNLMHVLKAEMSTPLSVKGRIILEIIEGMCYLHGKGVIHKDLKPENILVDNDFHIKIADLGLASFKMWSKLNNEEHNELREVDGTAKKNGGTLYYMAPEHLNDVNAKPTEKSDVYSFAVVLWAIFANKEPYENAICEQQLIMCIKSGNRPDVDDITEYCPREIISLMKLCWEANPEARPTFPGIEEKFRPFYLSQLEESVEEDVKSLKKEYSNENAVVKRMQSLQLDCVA

`CC(C(=O)N1C[C@@H]2C[C@H]1c1ccccc1O2)(C(F)(F)F)C(F)(F)F` [Compound 1-24, 1-[(2S,5S)-2,3-dihydro-2,5-methano-1,4-benzoxazepin-4(5H)-yl]-3,3,3-trifluoro-2-methyl-2-(trifluoromethyl)propan-1-one] showed an IC50 of 69 nM.

Work on `CN(C)C1(C(=O)N2C[C@@H]3C[C@H]2c2ccccc2O3)CCC1` [Compound 1-25, [(2S,5S)-2,3-dihydro-2,5-methano-1,4-benzoxazepin-4(5H)-yl][1-(dimethylamino)cyclobutyl] methanone] yielded an IC50 of 140 nM.

`O=C(N1C[C@@H]2C[C@H]1c1ccccc1O2)C1(C(F)(F)F)CCCC1` [Compound 1-26, [(2S,5S)-2,3-dihydro-2,5-methano-1,4-benzoxazepin-4(5H)-yl][1-(trifluoromethyl)cyclopentyl]methanone] was tested, and the IC50 was 60 nM.

In the case of `CC(C)(C(=O)N1C[C@@H]2C[C@H]1c1ccccc1O2)C1CC1` [Compound 1-28, 2-cyclopropyl-1-[(2S,5S)-2,3-dihydro-2,5-methano-1,4-benzoxazepin-4(5H)-yl]-2-methylpropan-1-one], the IC50 is reported as 22 nM.

`O=C(N1C[C@@H]2C[C@H]1c1ccccc1O2)C1(C(F)F)CCC1` [Compound 1-29, [1-(difluoromethyl)cyclobutyl] [(2S,5S)-2,3-dihydro-2,5-methano-1,4-benzoxazepin-4(5H)-yl]methanone] showed an IC50 of 58 nM.

`N#CC1(C(=O)N2C[C@@H]3C[C@H]2c2ccccc2O3)CCC1` [Compound 1-30, 1-[(2S,5S)-2,3-dihydro-2,5-methano-1,4-benzoxazepine-4(5H)-carbonyl]cyclobutane-1-carbonitrile] gave an IC50 of 76 nM.

In the case of `CC1(C(=O)N2C[C@@H]3C[C@H]2c2ccccc2O3)CC(F)(F)C1` [Compound 1-31, (3,3-difluoro-1-methylcyclobutyl)[(2S,5S)-2,3-dihydro-2,5-methano-1,4-benzoxazepin-4(5H)-yl]methanone], the IC50 is reported as 157 nM.

`CC(CF)(CF)C(=O)N1C[C@@H]2C[C@H]1c1ccccc1O2` [Compound 1-33, 1-[(2S,5S)-2,3-dihydro-2,5-methano-1,4-benzoxazepin-4(5H)-yl]-3-fluoro-2-(fluoromethyl)-2-methylpropan-1-one] showed an IC50 of 881 nM.

For `N#Cc1cc(N2CCC(C(=O)N3C[C@@H]4C[C@H]3c3ccccc3O4)CC2)ncn1` [Compound 1-36, 6-{4-[(2S,5S)-2,3-dihydro-2,5-methano-1,4-benzoxazepine-4(5H)-carbonyl]piperidin-1-yl}pyrimidine-4-carbonitrile], the IC50 was 327 nM.

`O=C(C1CCN(c2ncnc3scnc23)CC1)N1C[C@@H]2C[C@H]1c1ccccc1O2` [Compound 1-37, [(2S,5S)-2,3-dihydro-2,5-methano-1,4-benzoxazepin-4(5H)-yl][1-([1,3]thiazolo[5,4-d]pyrimidin-7-yl)piperidin-4-yl]methanone] was tested, and the IC50 was 124 nM.

Work on `O=C(N1C[C@@H]2C[C@H]1c1ccccc1O2)C12CC(C1)C2` [Compound 1-38, (bicyclo[1.1.1]pentan-1-yl)[(2S,5S)-2,3-dihydro-2,5-methano-1,4-benzoxazepin-4(5H)-yl]methanone] yielded an IC50 of 146 nM.

Compound `O=C(C1CCN(c2nccn3ncnc23)CC1)N1C[C@@H]2C[C@H]1c1ccccc1O2` [Compound 1-39, [(2S,5S)-2,3-dihydro-2,5-methano-1,4-benzoxazepin-4(5H)-yl][1-([1,2,4]triazolo[1,5-a]pyrazin-8-yl)piperidin-4-yl]methanone] has an IC50 of 213 nM.

With `O=C(N1C[C@@H]2C[C@H]1c1ccccc1O2)C12CCC(F)(CC1)C2` [Compound 1-40, ((2S,5S)-2,3-dihydro-2,5-methanobenzo[f][1,4]oxaze-pin-4(5H)-yl)(4-fluorobicyclo[2.2.1]heptan-1-yl)methanone] the IC50 was 23 nM.

In the case of `O=C(N1C[C@@H]2C[C@H]1c1ccccc1O2)C12CCC(C(F)F)(CC1)C2` [Compound 1-41, (4-(difluoromethyl)bicyclo [2.2.1]heptan-1-yl)((2S,5S)-2,3-dihydro-2,5-methanobenzo[f][1,4]oxaze-pin-4(5H)-yl)methanone], the IC50 is reported as 13 nM.

`CC12CC(C(=O)N3C[C@@H]4C[C@H]3c3ccccc3O4)(CO1)C2` [Compound 1-42, [(2S,5S)-2,3-dihydro-2,5-methano-1,4-benzoxazepin-4(5H)-yl](1-methyl-2-oxabicyclo[2.1.1]hexan-4-yl)methanone] gave an IC50 of 922 nM.

`O=C(N1C[C@@H]2C[C@H]1c1ccccc1O2)C12CCC(CC1)CC2` [Compound 1-43, (bicyclo[2.2.2]octan-1-yl)[(2S,5S)-2,3-dihydro-2,5-methano-1,4-benzoxazepin-4(5H)-yl]methanone] showed an IC50 of 18 nM.

With `O=C(N1C[C@@H]2C[C@H]1c1ccccc1O2)C12CCC(C(F)(F)F)(CC1)C2` [Compound 1-44, [(2S,5S)-2,3-dihydro-2,5-methano-1,4-benzoxazepin-4(5H)-yl][4-(trifluoromethyl)bicyclo [2.2.1]heptan-1-yl]methanone] the IC50 was 17 nM.

`CC1(C)C2CCC1(C(=O)N1C[C@@H]3C[C@H]1c1ccccc1O3)CC2` [Compound 1-45, [(2S,5S)-2,3-dihydro-2,5-methano-1,4-benzoxazepin-4(5H)-yl](7,7-dimethylbicyclo[2.2.1]heptan-1-yl)methanone] gave an IC50 of 168 nM.

In the case of `COC12CCC(C(=O)N3C[C@@H]4C[C@H]3c3ccccc3O4)(CC1)C2` [Compound 1-46, [(2S,5S)-2,3-dihydro-2,5-methano-1,4-benzoxazepin-4(5H)-yl](4-methoxybicyclo[2.2.1]heptan-1-yl)methanone], the IC50 is reported as 117 nM.

`N#CC12CCC(C(=O)N3C[C@@H]4C[C@H]3c3ccccc3O4)(CC1)CC2` [Compound 1-47, 4-[(2S,5S)-2,3-dihydro-2,5-methano-1,4-benzoxazepine-4(5H)-carbonyl]bicyclo[2.2.2] octane-1-carbonitrile] was tested, and the IC50 was 281 nM.

`CC1(C(=O)N2C[C@@H]3C[C@H]2c2ccccc2O3)CCN(c2cc(C#N)ncn2)CC1` [Compound 1-48, 6-{4-[(2S,5S)-2,3-dihydro-2,5-methano-1,4-benzoxazepine-4(5H)-carbonyl]-4-methylpiperidin-1-yl}pyrimidine-4-carbonitrile] showed an IC50 of 375 nM.

`N#Cc1cc(N2CCC(F)(C(=O)N3C[C@@H]4C[C@H]3c3ccccc3O4)CC2)ncn1` [Compound 1-49, 6-{4-[(2S,5S)-2,3-dihydro-2,5-methano-1,4-benzoxazepine-4(5H)-carbonyl]-4-fluoropiperidin-1-yl}pyrimidine-4-carbonitrile] gave an IC50 of 117 nM.

`O=C(N1C[C@@H]2C[C@H]1c1ccccc1O2)C12CCC(c3ccccc3)(CC1)CC2` [Compound 1-51, [(2S,5S)-2,3-dihydro-2,5-methano-1,4-benzoxazepin-4(5H)-yl](4-phenylbicyclo[2.2.2]octan-1-yl)methanone] showed an IC50 of 723 nM.

Compound `O=C(N1C[C@@H]2C[C@H]1c1ccccc1O2)C12CC(C(F)(F)F)(C1)C2` [Compound 1-52, [(2S,5S)-2,3-dihydro-2,5-methano-1,4-benzoxazepin-4(5H)-yl][3-(trifluoromethyl)bicyclo [1.1.1]pentan-1-yl]methanone] has an IC50 of 199 nM.

In the case of `O=C(N1C[C@@H]2C[C@H]1c1ccccc1O2)C12CCC(C(F)(F)F)(CC1)CC2` [Compound 1-53, [(2S,5S)-2,3-dihydro-2,5-methano-1,4-benzoxazepin-4(5H)-yl][4-(trifluoromethyl)bicyclo [2.2.2]octan-1-yl]methanone], the IC50 is reported as 510 nM.

`O=C(N1C[C@@H]2C[C@H]1c1ccccc1O2)C12CCC(C(F)F)(CC1)CC2` [Compound 1-54, [4-(difluoromethyl)bicyclo [2.2.2]octan-1-yl][(2S,5S)-2,3-dihydro-2,5-methano-1,4-benzoxazepin-4(5H)-yl]methanone] showed an IC50 of 263 nM.

Compound `COC(=O)C12CCC(C(=O)N3C[C@@H]4C[C@H]3c3ccccc3O4)(CC1)C2` [Compound 1-55, methyl 4-[(2S,5S)-2,3-dihydro-2,5-methano-1,4-benzoxazepine-4(5H)-carbonyl]bicyclo[2.2.1] heptane-1-carboxylate] has an IC50 of 43 nM.

In the case of `CC(C)(CC#N)C(=O)N1C[C@@H]2C[C@H]1c1ccccc1O2` [Compound 1-57, 4-[(2S,5S)-2,3-dihydro-2,5-methano-1,4-benzoxazepin-4(5H)-yl]-3,3-dimethyl-4-oxobutanenitrile], the IC50 is reported as 56 nM.

In the case of `COc1ccc(CC(C)(C)C(=O)N2C[C@@H]3C[C@H]2c2ccccc2O3)cc1` [Compound 1-58, 1-[(2S,5S)-2,3-dihydro-2,5-methano-1,4-benzoxazepin-4(5H)-yl]-3-(4-methoxyphenyl)-2,2-dimethylpropan-1-one], the IC50 is reported as 887 nM.

`CC(C)(C#N)C(=O)N1C[C@@H]2C[C@H]1c1ccccc1O2` [Compound 1-59, 3-[(2S,5S)-2,3-dihydro-2,5-methano-1,4-benzoxazepin-4(5H)-yl]-2,2-dimethyl-3-oxopropanenitrile] was tested, and the IC50 was 159 nM.
